Test results reported in paper PMC9663578, “A fluorogenic probe for predicting treatment response in non-small cell lung cancer with EGFR-activating mutations” (Nature Communications, 2022).
“And” between values parts separate entries of the source, which are not always exact repeats. Equal values may be shown once.

What was measured:
EGFR L858R = molecular target: T1, EGFR L858R (Homo sapiens, UniProt P00533, L858R); test: Fluorescence turn-on response / titration of HX103 with recombinant EGFR;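 as to Fluorescence intensity at 570 nm: 100% is HX103 fluorescence with wild-type EGFR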;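 as to all read-outs here: fluorescence of the probe measured with recombinant EGFR L858R in PBS carrying 0.1% DMSO, excitation at 440 nm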; format: binding; settings: for Fluorescence intensity, L858R: Fig. 2c; for Fluorescence response of HX103 to EGFR L858R: Supplementary Fig. 2f
T1 construct: EGFR L858R (amino acids 668–1210, #PR7447A); purchased Thermo Fisher PR7447A
Protocol: (§1) (d) Fluorescence spectra change of HX103 (5 µ M) with increasing concentration of EGFR L858R
(§2) (e) Fluorescence spectra change of HX103 (5 µ M ) with
(§3) increasing concentration of EGFR 19del (0 to 6 µM) in PBS buffer. (f) Titration curve of HX103
(§4) (5 µM) with increasing concentration of EGFRs (0 to 6 µM). The apparent binding affinity (Kd)
(§5) The fluorescence titration curve was fitted on one -
(§6) site specific binding model. I and I0 represent the intensities of HX103 at 570 nm in the presence
(§7) and absence of protein. Data represent average val ues ± SD, n = 3 independent experiments per
(§8) dissolved in dimethyl sulfoxide (DMSO) to obtain stock solutions (10 mM). The prepared stock
(§9) solution was diluted in sodium phosphate buffer (PBS, 1 M, pH=7.4) to obtain the desired final
(§10) concentration solution, containing 0.1% (v/v) DMSO as a cosolvent.
(§11) and emission fluorescence spectra of the solution before/after addition o f different concentration
(§12) Data analysis：The obtained fluorescence intensity at 570 nm (Excitation wavelength was 440
(§13) nm) in each sample was normalized by using the fluorescence intensity of HX103 in the presence
(§14) of EGFR. Specifically, the fluorescence intensity of HX103 in the presence of EGFR wild-type
(§15) was set at 100% to normalized that of the remaining samples.

EGFR T790M = molecular target: T2, EGFR T790M (Homo sapiens, UniProt P00533, T790M); test: as above; format: binding; settings: for Fluorescence intensity, T790M: Fig. 2c; for Fluorescence response of HX103 to EGFR T790M: Supplementary Fig. 2f;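 as to Fluorescence intensity at 570 nm: 100% is HX103 fluorescence with wild-type EGFR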
T2 construct: EGFR T790M (amino acids 668–1210, #PR8052A); purchased Thermo Fisher PR8052A
Protocol: as §1, §2, §3, §4, §5, §6, §7, §8, §9, §10, §11, §12, §13, §14, §15

MTT cytotoxicity assay = format: cell-based; settings: human, A549 cells, EGFR wild-type, n=3
Protocol: The cytotoxicity of the tested compounds against selected cell lines was measured by 3-(4,5-dimethylthiazol-2-yl)-2,5-diphenl tetrazolium bromide (MTT) assay. Briefly, cells (3000 per well) were plated in 96-well plate for 24 h and 100 µL of medium with di fferent concentrations of the tested compounds was added to each well for 48 h. Then 20 μL of MTT (5 mg/mL, Sigma-Aldrich) was added and incubate at 37 ℃ for 4 h, resulting the formation of the formazan crystal. The formed formazan crystal was dissolved with 150 μL of DMSO after removing the medium. The absorbance of each well was measured at 570 nm wavelength. The inhibition rate was calculated by the formula: (OD control group - OD treated group)/OD control group ×100%. The experiments were repeated at least three times. The IC50 values were determined by plotting a log (inhibitor) vs. normalized response (Variable slope) dose-response curve generated using GraphPad Prism […]
Immunohistochemistry staining
The obtained tumor tissues were sectioned into about 3 µm thickness layers. The general protocol of immunohistochemistry (IHC) was applied for the experiment. Firstly, the tissue slices were deparaffinized in xylene before immersion in 100% ethanol, followed by antigen repair. […]

[1] = tested on: tumor tissues from NSCLC patients; test: HX103-based multicolor FACS, surgical tumor tissues; format: cell-based, human
Protocol: The obtained tissues were dissociated into single-cell suspension using a standard protocol of primary cell isolation. Briefly, the obtained fresh tissue was placed in a petri dish on ice and cut into small pieces of ~2 mm. […] Subsequently, the digested sample was filtered through 70-μm and 40-μm cell strainer (Falcon), respectively, followed by the wash with serum-free medium (DMEM). The tumor cell pellet was then obtained by centrifugation at 500×g for 5 min at 4 °C for the removal of the supernatant. Then, the cell pellet was resuspended in serum-free medium and 1 mL of red blood cell lysis buffer was added and incubated for 5 min to remove the erythrocyte. The cells were pelleted and resuspended in a serum-free medium and ready for FACS analysis[67],[68]. […]
Gibco), and digested for 30 min at 37 ℃ under gentle agitation. […] The cells were pelleted and resuspended in serum-free medium and ready for FACS analysis 2, 3. […]
The co-staining was performed for 30 min at 37 °C, then the cells were pelleted (2000 g, 3 min) and washed with PBS buffer and PBS (containing 1% BSA) (2 times). The cells were pelleted (2000 g, 3 min) and resuspended in PBS (containing 1% BSA) and ready for analysis with a FACSVerseTM flow cytometer (BD Biosciences, LSRFortessa) (the lasers used for this study: 405 nm, 488 nm and 647 nm). […]

[2] = tested on: biopsy samples from NSCLC patients; test: HX103-based multicolor FACS, biopsy samples; format: cell-based, human
[3] = HX103 5 µM in PBS buffer (0.1% DMSO), 570 nm
[4] = HX103 5 µM, EGFR 0 to 6 µM in PBS, one-site specific binding model, read-out: apparent binding affinity (Kd)

With `COc1cc2c(Nc3ccc(F)c(Cl)c3)ncnc2cc1OCCCNc1ccc(S(=O)(=O)N(C)C)c2nonc12` [HX103] the “Fluorescence intensity, L858R” value (EGFR L858R; wavelength 666 nm) was 4655.85, the “Fluorescence intensity, L858R” value (EGFR L858R; wavelength 669 nm) was 4299.18 and the “Fluorescence intensity, L858R” value (EGFR L858R; wavelength 671 nm) was 3977.08. For the same compound, the “Fluorescence intensity, L858R” value (EGFR L858R; wavelength 673 nm) was 3702.64, the “Fluorescence intensity, L858R” value (EGFR L858R; wavelength 676 nm) was 3456.05 and the “Fluorescence intensity, L858R” value (EGFR L858R; wavelength 678 nm) was 3215.71. The “Fluorescence intensity, L858R” value (EGFR L858R; wavelength 681 nm) was 2960.24, the “Fluorescence intensity, L858R” value (EGFR L858R; wavelength 683 nm) was 2683.28 and the “Fluorescence intensity, L858R” value (EGFR L858R; wavelength 686 nm) was 2403.9. The “Fluorescence intensity, L858R” value (EGFR L858R; wavelength 688 nm) was 2143.64, the “Fluorescence intensity, L858R” value (EGFR L858R; wavelength 690 nm) was 1924.01 and the “Fluorescence intensity, L858R” value (EGFR L858R; wavelength 693 nm) was 1757.52. For the same compound, the “Fluorescence intensity, L858R” value (EGFR L858R; wavelength 695 nm) was 1633.62, the “Fluorescence intensity, L858R” value (EGFR L858R; wavelength 698 nm) was 1538.11 and the “Fluorescence intensity, L858R” value (EGFR L858R; wavelength 700 nm) was 1456.78. For the same compound, the “Fluorescence intensity at 570 nm” value (EGFR L858R; Fig. 2d, HX103 with EGFR L858R, n=1-3) was 94.4744 and 115.569 and 99.2784, the fluorescence turn-on response (EGFR L858R; [3]) was “high fluorescence” and the Kd (EGFR L858R; [4]) was 0.8 ± 0.3 µM. For the same compound, the “Fluorescence response of HX103 to EGFR L858R” value (EGFR L858R; EGFR 1 µM, n=1-3) was 6.4875 and 6.559 and 3.424, the “Fluorescence response of HX103 to EGFR L858R” value (EGFR L858R; EGFR 2 µM, n=1-3) was 8.6 and 6.836 and 4.376 and the “Fluorescence response of HX103 to EGFR L858R” value (EGFR L858R; EGFR 5 µM, n=1-3) was 8.998 and 10.1242 and 7.156. For the same compound, the “Fluorescence response of HX103 to EGFR L858R” value (EGFR L858R; EGFR 6 µM, n=1-3, 0 at EGFR 0) was 9.745 and 11.2537 and 8.24, the “Fluorescence intensity, T790M” value (EGFR T790M; wavelength 666 nm) was 2748.26 and the “Fluorescence intensity, T790M” value (EGFR T790M; wavelength 669 nm) was 2609.98. The “Fluorescence intensity, T790M” value (EGFR T790M; wavelength 671 nm) was 2444.87, the “Fluorescence intensity, T790M” value (EGFR T790M; wavelength 673 nm) was 2257.89 and the “Fluorescence intensity, T790M” value (EGFR T790M; wavelength 676 nm) was 2067.13. The “Fluorescence intensity, T790M” value (EGFR T790M; wavelength 678 nm) was 1891.35, the “Fluorescence intensity, T790M” value (EGFR T790M; wavelength 681 nm) was 1749.2 and the “Fluorescence intensity, T790M” value (EGFR T790M; wavelength 683 nm) was 1648.24. For the same compound, the “Fluorescence intensity, T790M” value (EGFR T790M; wavelength 686 nm) was 1577.34, the “Fluorescence intensity, T790M” value (EGFR T790M; wavelength 688 nm) was 1523.55 and the “Fluorescence intensity, T790M” value (EGFR T790M; wavelength 690 nm) was 1473.92. The “Fluorescence intensity, T790M” value (EGFR T790M; wavelength 693 nm) was 1419.2, the “Fluorescence intensity, T790M” value (EGFR T790M; wavelength 695 nm) was 1359.54 and the “Fluorescence intensity, T790M” value (EGFR T790M; wavelength 698 nm) was 1296.59. The “Fluorescence intensity, T790M” value (EGFR T790M; wavelength 700 nm) was 1231.99, the “Fluorescence intensity at 570 nm” value (EGFR T790M; Fig. 2d, HX103 with EGFR T790M, n=1-3) was 62.6243 and 56.177 and 61.7341 and the fluorescence turn-on response (EGFR T790M; [3]) was “relatively low fluorescence”. For the same compound, the Kd (EGFR T790M; [4]) was 6.6 ± 4.6 µM, the “Fluorescence response of HX103 to EGFR T790M” value (EGFR T790M; EGFR 0.1 µM, n=1-3) was 0.8143 and 0.8764 and 0.5043 and the “Fluorescence response of HX103 to EGFR T790M” value (EGFR T790M; EGFR 0.5 µM, n=1-3) was 1.381 and 1.689 and 1.392. For the same compound, the “Fluorescence response of HX103 to EGFR T790M” value (EGFR T790M; EGFR 1 µM, n=1-3) was 1.713 and 2.039 and 1.744, the “Fluorescence response of HX103 to EGFR T790M” value (EGFR T790M; EGFR 6 µM, n=1-3) was 6.037 and 7.198 and 5.58 and the IC50 at 48 h (MTT cytotoxicity assay) was 18 µM. For the same compound, the “mean % value of HX103(+), EGFR 19del tumors” value ([1]; n = 4) was 40.6±8.2%, the “mean % value of HX103(+), EGFR L858R tumors” value ([1]; n = 8) was 65.3±10.9% and the “mean ratio of EGFR(+)HX103(+), responders” value ([2]; CR or PR, n = 9) was 43.5 ± 2.8%. For the same compound, the “mean ratio of HX103(+), responders” value ([2]; CR or PR, n = 9) was 54.1 ± 3.3%, the “EGFR(+) HX103 (+) (%) AVE” value ([2]; Fig. 6f, CR/PR, average) was 43.5167% and the “HX103 (+) (%) AVE” value ([2]; Fig. 6f, CR/PR, average) was 54.1%.
